Experimental data taken from patent US12667546B2, “Methods for manipulating cell state transitions in cancer” (AGENCY FOR SCIENCE, TECHNOLOGY AND RESEARCH, priority 2018, dated 2026).

Tests used:
Format in all cases: cell-based, human
SUM159 = assay: Cell morphology of treated SUM159; conditions: bexarotene, TTNPB 1 μM
Experimental: HMLE-Twist-ER cells were generated as described. For EMT-induction, 100 nM of 4-hydroxytamoxifen in ethanol was added to the culture medium every 48 h to induce Twist expression. Control cells were treated with ethanol. MCF7-Slug+Sox9 cells were generated as previously described. HMLE-Zeb1 cells were generated by infection with FUW-Zeb1 and rTTA. Doxycycline was added to the culture medium every 48 h to induce Zeb1 expression. To generate tumorigenic cells from NAMEC8, cells were infected with pWZL-Blast-Ras. MCF7, MCF7-Ras, SUM159 were maintained as previously described. All cell cultures were maintained at 37° C. with 5% CO2.

[1] = test system: NAMEC8 and SUM159, BC2.2 and BC22.1; assay: In vitro measurement of IC50 of 5-FU/PAC in bexarotene-treated cells; conditions: bexarotene-treated vs DMSO cells
Text: Data were normalized to vehicle controls.

NAMEC8 = assay: Lipidomic analysis (LC-MS/MS); conditions: NAMEC8 bexarotene vs DMSO
Text: Lipids from cell pellets were extracted using butanol:methanol (1:1) as extraction solvent. The extraction solvent included an internal standard mixture consisting of 17:0 LPC (Lysophosphocholine), C14 LPE (Lysophosphoethanolamine), C17 Ceramide, C17 phosphocholine, C17 phosphoserine, C17:0 PG, C8-Ceramide, DMPE (1,2-dimyristoyl-glycero-3-phosphoethanolamine), DMPG (1,2-dimyristoyl-glycero-3-phospho-(1′rac-glycerol), DMPS (dimyristoyl-glycero-phosphoserine), 12:0 DG (1,2-dilauroyl-sn-glycerol), C8 GluCer (D-glucosyl-β1-1′-N-octanoyl-D-erythro-sphingosine), 24:0 SM (N-lignoceroyl-D-erythro-sphingosylphosphorylcholine), 24:1 SM (N-nervonoyl-D-erythro-sphingosylphosphorylcholine), d5-TAG 48:0. All the standards were obtained from Avanti Polar Lipids (Alabaster, AL, USA) except for d5-TAG 48:0 that was obtained from CDN isotopes. All standards were added to a final concentration of 100 ng/ml. 100 μl of the extraction solvent including the standards were added to 1×10^7 cells in a vial containing the cell pellet. The mixture was vortexed for 15 s. […]
Samples were analysed with a liquid chromatography-tandem mass spectrometry (LC-MS/MS) system (Agilent 1290 UHPLC connected to Agilent 6490 QQQ). […] Lipids were quantified in positive multiple reaction monitoring (MRM) mode. […] Data were extracted using MassHunter Quantitative Analysis software (Agilent). […]

In the case of C=C(c1ccc(C(=O)O)cc1)c1cc2c(cc1C)C(C)(C)CCC2(C)C [Bexarotene], the cell morphology (SUM159) is reported as “dramatic change in morphology from scattered, spindle and fibroblastic-like cells to an epithelial-like morphology”, the “conferred susceptibility to 5-FU or paclitaxel” value [1] is reported as 4-6 folds and the “lipid species content (PI, PG, PC, PE, PS)” value (NAMEC8) is reported as “dramatically increased”.
